pEC50: −log10 of the molar value.
Molecular target: T1, human MCR5 receptor (Homo sapiens, UniProt P33032)
T1 construct: expressed in transfected cells
Assay: MCR5 standard functional assay (Protocol D): CHO-K1-MC5R-CRE-β-lactamase reporter
Format: cell-based
Conditions: for pEC50: Protocol D
Text: These cell lines were engineered using protocols akin to those outlined by Zaccolo et al (Zaccolo, M., (2000) Nature, 2(1); 25-29). Compound-induced activation of the MCR5 or MCR4 receptors in these two cell lines stimulated the production, and intracellular accumulation, of the enzyme β-lactamase. The quantity of β-lactamase enzyme produced was directly proportional to the degree to which the test compound activated the MCR5 or MCR4 receptors present on these cells and was quantified using the P-lactamase gene reporter analysis kit that is commercially available from Invitrogen Life Technologies. An in-depth description of this technology and assay protocols are available from the Invitrogen web site (www.invitrogen.com). The protocol listed below provides a summary of that assay methodology. The quantity of β-lactamase enzyme produced by compound-induced activation of the MCR5 or MCR4 receptors expressed in these cell lines was quantified using a LjI Biosystems Analyst™ HT 96.384 plate reader set to excite at a wave length of 405 nm, and measure the energy emitted at wave lengths of 450 nm and 530 nm. Cellular responses were quantified by dividing the measured energy emitted at a wavelength of 450 nm by the measured energy emitted at a wavelength of 530 nm. […] CCF4-AM was dissolved in 100% DMSO to give a final solution concentration of 1 mM. This solution was termed Solution A. Probenecid was dissolved in 200 mM NaOH to give a final solution concentration of 200 mM. This solution was termed Solution D. Composition of the β-lactamase assay dye solution: for 1072 μL of assay dye solution combine: 12 μL of Solution A, 60 μL of Solution B, 925 μL of Solution C and 75 μL of Solution D. […] Cells were grown in T225 vent cap flasks containing 50 ml of growth medium and maintained in a cell incubator at a temperature of 37° C. and in an environment containing 5% CO2. The composition of the growth medium for the CHO-K1-MC5R-CRE-β-lactamase was 90% v/v DMEM supplemented with; Glutamax-1, 25 mM HEPES, 10% v/v foetal calf serum (FCS), 1 mM sodium pyruvate, 0.1 mM non essential amino acids and 800 μg/ml genetic in. For the CHO-K1-MC4R-CRE-β-lactamase this growth media was further supplemented with […] Zeocin. Cells were harvested when they reached 80-90% confluency by first removing the existing growth medium and then washing with PBS that had been pre-warmed to a temperature of 37° C. This PBS was then removed and 5 ml of cell dissociation fluid added to the flask. These cells were incubated for 5 minutes in a cell incubator set at a temperature of 37° C. and in an environment containing 5% CO2 to detach the cells. When cells were detached, pre-warmed growth media was added, the cells re-suspended and mixed gently to achieve a single cell suspension by pipetting. This cell suspension was then used for experimentation, or transferred into a new T225 flask to perpetuate the cell culture. On the first day of the assay cells were harvested as described above. […] For each assay the cell plates were then retuned to a cell incubator maintained at a temperature of 37° C. and in an environment containing 5% CO2 overnight before performing the assay on the second assay day. […] For the MCR4 improved functional assay methodology the solution of cyclohexamide was not added. Subsequently, 10 μL of the test compound solution was transferred to the assay plate. […] After this incubation period the plate was removed from the incubator, 10 μL of the […] assay dye solution was added to each well and then the plate returned to the cell incubator.

T1 sequence (P33032 whole entry): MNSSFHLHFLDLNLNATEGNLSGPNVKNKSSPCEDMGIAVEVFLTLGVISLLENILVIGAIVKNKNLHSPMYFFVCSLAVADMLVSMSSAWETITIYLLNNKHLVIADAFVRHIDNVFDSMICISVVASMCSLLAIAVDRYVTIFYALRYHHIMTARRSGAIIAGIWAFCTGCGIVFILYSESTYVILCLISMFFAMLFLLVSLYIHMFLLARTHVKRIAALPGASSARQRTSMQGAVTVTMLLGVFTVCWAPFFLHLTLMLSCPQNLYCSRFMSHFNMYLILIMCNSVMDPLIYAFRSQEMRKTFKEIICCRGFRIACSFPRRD

| Selectivity MCR5/MCR4 (Table 6, MCR4 by Protocol E) | pEC50 (Table 6) | Selectivity MCR5/MCR4 (Table 5, MCR4 by Protocol C) | pEC50 (Table 5) | Structure (SMILES) |
| --- | --- | --- | --- | --- |
| 13,333 | 4.70 | – | – | C[C@@H]1CN(C(=O)[C@@H]2CN(c3cccnn3)C[C@H]2c2ccc(F)cc2F)C[C@H](C)[C@@]1(O)c1ccccc1.Cl [Example 35, (3R,4R,5S)-1-{[(3S,4R)-4-(2,4-difluorophenyl)-1-pyridazin-3-ylpyrrolidin-3-yl]carbonyl}-3,5-dimethyl-4-phenylpiperidin-4-ol hydrochloride] |
| 285 | – | 268 | 5.17 | C[C@@H]1CN(C(=O)[C@@H]2CN(C(C)(C)C)C[C@H]2c2ccc(F)cc2F)C[C@H](C)[C@@]1(O)c1ccccc1 [Example 1, (3R,4R,5S)-1-{[(3S,4R)-1-tert-Butyl-4-(24-difluorophenyl)pyrrolidin-3-yl]carbonyl}-3,5-dimethyl-4-phenylpiperidin-4-ol] |
| 285 | 5.56 | – | – | C[C@@H]1CN(C(=O)[C@@H]2CN(C(C)(C)C)C[C@H]2c2ccc(F)cc2F)C[C@H](C)[C@@]1(O)c1ccccc1.Cl [Example 5, (3R,4R,5S)-1-{[(3S,4R)-1-tert-Butyl-4-(2,4-difluorophenyl)pyrrolidin-3-yl]carbonyl}-3,5-dimethyl-4-phenylpiperidin-4-ol hydrochloride] |
| 624 | 4.77 | – | – | C[C@@H]1CN(C(=O)[C@@H]2CN(C(C)(C)C)C[C@H]2c2ccc(F)cc2F)C[C@H](C)[C@@]1(O)c1ccc(Cl)cc1.Cl [Example 13, (3R,4R,5S)-1-{[(3S,4R)-1-tert-butyl-4-(2,4-difluorophenyl)pyrrolidin-3-yl]carbonyl}-4-(4-chlorophenyl)-3,5-dimethylpiperidin-4-ol hydrochloride] |
| 266 | 6.02 | – | – | C[C@@H]1CN(C(=O)[C@@H]2CN(c3ccccn3)C[C@H]2c2ccc(F)cc2F)C[C@H](C)[C@@]1(O)c1ccccc1.Cl [Example 31, (3R,4R,5S)-1-{[(3S,4R)-4-(2,4-difluorophenyl)-1-pyridin-2-ylpyrrolidin-3-yl]carbonyl}-3,5-dimethyl-4-phenylpiperidin-4-ol hydrochloride] |
| 267 | 4.70 | – | – | C[C@@H]1CN(C(=O)[C@@H]2CNC[C@H]2c2ccc(F)cc2F)C[C@H](C)[C@@]1(O)c1ccc(F)cc1.Cl [Example 12, (3R,4R,5S)-1-{[(3S,4R)-4-(2,4-difluorophenyl)pyrrolidin-3-yl]carbonyl}-4-(4-fluorophenyl)-3,5-dimethylpiperidin-4-ol hydrochloride] |

| Structure (SMILES) | Selectivity MCR5/MCR4 (Table 6, MCR4 by Protocol E) | pEC50 (Table 6) | Selectivity MCR5/MCR4 (Table 5, MCR4 by Protocol C) | pEC50 (Table 5) |
| --- | --- | --- | --- | --- |
| CC(C)N1C[C@@H](C(=O)N2C[C@@H](C)[C@](O)(c3ccccc3)[C@@H](C)C2)[C@H](c2ccc(F)cc2F)C1.Cl [Example 6, (3R,4R,5S)-1-{[(3S,4R)-4-(2,4-Difluorophenyl)-1-isopropylpyrrolidin-3-yl]carbonyl}-3,5-dimethyl-4-phenylpiperidin-4-ol hydrochloride] | 83 | 5.80 | – | – |
